Measured values published in US20160199367A1, “Composition for the prevention or treatment of the symptoms in the stroke comprising the inhibitor of Pin1” (RESEARCH & BUSINESS FOUNDATION SUNGKYUNKWAN UNIVERSITY, priority 2015, published 2016).

Columns and labels:
NICD1 protein [1] = assay: NICD1 protein expression by western blotting in SH-SY5Y cells; assay type: cell-based, human; settings: 5 μM, treated in combination after overexpression of Pin1, SH-SY5Y, FIG. 1B
Description: In Examples according to the present invention, a human neuroblastoma cell line, SH-SY5Y, and a mouse embryonic fibroblast cell line, an MEF cell, were used. All of the cells were cultured in DMEM (Sigma) media containing 10% fetal bovine serum (Gibco, Welgene, Hyclone) and 1% penicillin/streptomycin.
(§1) A sample was prepared by isolating a protein from cells, and analyzed by 10% sodium dodecyl sulfate (SDS)-polyacrylamide gel electrophoresis using Tris-glycine running buffer. The gel was removed after the electrophoresis, and a transferring process was performed using a transfer buffer containing 0.025 mol/L Tris base, 0.15 mol/L glycine, and 10% (v/v) methanol at 15 V for 1.5 hours to transfer proteins onto a nitrocellulose membrane along an electrical flow. The protein-binding membrane was immersed in blocking buffer (5% non-fat milk in 20 mM Tris-HCl, pH 7.5, 137 mM NaCl, 0.2% Tween-20), and reacted at room temperature for 1 hour. […]
First, to verify the correlation between the Notch1 signaling activity and Pin1, Pin1 protein was overexpressed with Pin1 cDNA in a human neuroblastoma cell line, SH-SY5Y, and a change in expression of a Notch1 signaling-activation molecule, NICD1 protein, was analyzed by western blotting (WB). […]

SH-SY5Y cells = assay: Apoptosis of SH-SY5Y cells under GD or OGD by trypan blue staining; assay type: cell-based, human; settings: OGD or GD condition for 6 hours or 12 hours, juglone 1.5 μM, PiB 5 μM, DTM 5 μM, FIGS. 5A to 5D
Description: By the method as described in Example 4, SH-SY5Y cells were exposed to OGD or GD conditions to induce apoptosis, and Pin1 inhibitors including juglone were treated to verify a neuroprotective effect.
SH-SY5Y cells were treated with Pin1 inhibitors such as 5-hydroxy-1,4-naphthoquinone (juglone), diethyl-1,3,6,8-tetrahydro-1,3,6,8-tetraoxobenzo phenanthroline-2,7-diacetate (PiB), and dipentamethylene thiuram monosulfide (DTM) at a concentration each of 1.5, 5 or 5 μM, and exposed to a GD or OGD condition for 6 hours or 12 hours to induce apoptosis, and then stained with trypan blue (0.4%) to quantify a degree of apoptosis.

NICD1 ubiquitination = NICD1 ubiquitination by co-immunoprecipitation and western blotting in Pin1-overexpressing SH-SY5Y cells; assay type: cell-based, human; settings: 1.5 μM, Pin1-overexpressing SH-SY5Y treated with MG132, FIG. 3A
Description: MYC-tagged NICD1, HA-tagged ubiquitin (Ub), and Pin1 were expressed in SH-SY5Y cell lines, and treated with MG132 to inhibit a proteolytic activity of a 26S proteasome complex. Afterward, HA and FBW7-specific antibodies were used to analyze a degree of NICD1 ubiquitination by co-immunoprecipitation (IP) and western blotting (WB).

Pin1 protein [2] = assay: Pin1 protein expression in primary neuronal cells in ischemic stroke-like environment (immunocytochemistry, western blotting); assay type: cell-based; settings: OGD or GD condition, FIGS. 4A and 4B
Description: (§8) Primary neuronal cells were cultured in a glucose and serum-free medium in a 5% or 1% oxygen incubator for 9, 12 and 24 hours to create an ischemic stroke-like environment on a cellular level, thereby inducing the neuronal cell death. Afterward, an expression level of the Pin1 protein was analyzed by immunocytochemistry and western blotting.
(§9) In addition, after the neuronal cells were cultured under the OGD condition for 12 hours, the induction of the neuronal cell death was detected by trypan blue (0.4%) staining, which is shown in FIG. 4C.

[3] = test system: cleaved caspase-3 (CLCas-3) protein; assay: Cleaved caspase-3 expression in primary neuronal cells under GD or OGD by western blotting; assay type: cell-based; settings: GD or OGD condition for 12 hours or 24 hours, FIGS. 4D and 4E
Description: as §1, with “hour. Afterward, the membrane was reacted overnight with primary antibodies, such as Pin1 (R&D, Epitomics), NICD1 (Upstate), MYC (Roche), FBW7 (Bioss), or Actin (Sigma), which specifically bound to each protein whose expression level was to be confirmed, at 4° C. The next day, the membrane was washed with Tris-buffered saline-T (20 mM Tris-HCL, pH 7.5, 137 mM NaCl, 0.2% Tween-20) three times each for 10 minutes.” for “hour.”
(§2) Subsequently, primary neuronal cells were cultured under a GD or OGD condition for 12 hours or 24 hours, and then changes in expressions of caspase-3, which is one of the apoptosis signal proteins, and NICD1 protein were analyzed by western blotting.

NICD1 protein [4] = assay: NICD1 expression in primary neuronal cells under GD or OGD by western blotting; assay type: cell-based; settings: GD or OGD condition, FIGS. 4F and 4G
Description: as §1, with “hour. Afterward, the membrane was reacted overnight with primary antibodies, such as Pin1 (R&D, Epitomics), NICD1 (Upstate), MYC (Roche), FBW7 (Bioss), or Actin (Sigma), which specifically bound to each protein whose expression level was to be confirmed, at 4° C. The next day, the membrane was washed with Tris-buffered saline-T (20 mM Tris-HCL, pH 7.5, 137 mM NaCl, 0.2% Tween-20) three times each for 10 minutes.” for “hour.”
as §2

[5] = test system: middle cerebral artery occlusion (MCAO) animal model; assay: Stroke inhibitory effect in MCAO animal model, administration before MCAO operation; assay type: in vivo; settings: mouse, 3 mg/kg intraperitoneally twice before MCAO operation, compared to control group
Description: (§3) A mouse was anesthetized and an epidermis around the neck was incised. The left common carotid artery linked to the left hemisphere was ligated with a surgical suture, and then the external carotid artery was incised to insert a filament thereinto. The filament was pushed into the middle cerebral artery through the internal carotid artery to locally clog the middle cerebral artery, thereby interrupting blood supply to construct an ischemic animal model. After cerebral infarction was induced in the animal model for 1 hour, the filament was removed from the blood vessel (artery), and then the blood was supplied again to the blood vessel, followed by suturing.
Ischemic stroke was trigged in the mouse by intraperitoneally administering the juglone (3 mg/kg) twice and conducting an MCAO operation, and then the resultant mouse was compared with a control group mouse to which the juglone was not administered.

NICD1 protein [6] = assay: NICD1 expression in left hemisphere of MCAO mouse, administration before MCAO (western blotting); assay type: in vivo; settings: 3 mg/kg intraperitoneally twice before MCAO, compared to control group, FIGS. 7C and 7D
Description: (§4) A sample was prepared by isolating a protein from cells, and analyzed by 10% sodium dodecyl sulfate (SDS)-polyacrylamide gel electrophoresis using Tris-glycine running buffer. The gel was removed after the electrophoresis, and a transferring process was performed using a transfer buffer containing 0.025 mol/L Tris base, 0.15 mol/L glycine, and 10% (v/v) methanol at 15 V for 1.5 hours to transfer proteins onto a nitrocellulose membrane along an electrical flow. The protein-binding membrane was immersed in blocking buffer (5% non-fat milk in 20 mM Tris-HCl, pH 7.5, 137 mM NaCl, 0.2% Tween-20), and reacted at room temperature for 1 hour. […] The next day, the membrane was washed with Tris-buffered saline-T (20 mM Tris-HCL, pH 7.5, 137 mM NaCl, 0.2% Tween-20) three times each for 10 minutes. In addition, the membrane was reacted with secondary antibodies at room temperature for 1 hour, washed again three times, and then scanned using an Odyssey® Infrared Imaging System (LI-COR Biosciences) or ECL-plus system to analyze the expression level of each protein.
(§5) A mouse was anesthetized and an epidermis around the neck was incised. […]
(§6) In addition, the left hemisphere of the stroke-triggered mouse was analyzed by western blotting to compare the expressions of NICD1, Pin1 and FBW7 proteins.

Pin1 protein [7] = assay: Pin1 expression in left hemisphere of MCAO mouse, administration before MCAO (western blotting); assay type: in vivo; settings: 3 mg/kg intraperitoneally twice before MCAO, compared to control group, FIGS. 7C and 7D
Description: as §4, §5, §6

FBW7 protein [8] = assay: FBW7 expression in left hemisphere of MCAO mouse, administration before MCAO (western blotting); assay type: in vivo; settings: 3 mg/kg intraperitoneally twice before MCAO, compared to control group, FIGS. 7C and 7D
Description: as §4, §5, §6

[9] = test system: middle cerebral artery occlusion (MCAO) animal model; assay: Neuroprotective effect in MCAO animal model, administration after triggering of ischemic stroke; assay type: in vivo; settings: mouse, 3 mg/kg once by intravenous injection after MCAO operation, compared to control group
Description: as §3
An MCAO operation was conducted on a mouse as described in Example 1-4 to trigger ischemic stroke, and then juglone (3 mg/kg) was administered once to the mouse by intravenous injection. Afterward, the resultant mouse was compared with the control group mouse to which the juglone was not administered.

NICD1 protein [10] = assay: NICD1 expression in MCAO mouse brain, administration after stroke (western blotting); assay type: in vivo; settings: 3 mg/kg once by intravenous injection after MCAO, compared to control group, FIGS. 8C and 8D
Description: as §4
(§7) A mouse was anesthetized and an epidermis around the neck was incised. The left common carotid artery linked to the left hemisphere was ligated with a surgical suture, and then the external carotid artery was incised to insert a filament thereinto. […]

Pin1 protein [11] = assay: Pin1 expression in MCAO mouse brain, administration after stroke (western blotting); assay type: in vivo; settings: 3 mg/kg once by intravenous injection after MCAO, compared to control group, FIGS. 8C and 8D
Description: as §4, §7

FBW7 protein [12] = assay: FBW7 expression in MCAO mouse brain, administration after stroke (western blotting); assay type: in vivo; settings: 3 mg/kg once by intravenous injection after MCAO, compared to control group, FIGS. 8C and 8D
Description: as §4, §7

primary neuronal cells = assay: Neuronal cell death under OGD condition by trypan blue staining; settings: OGD condition for 12 hours, FIG. 4C
Description: as §8, §9

C[C@H](NC(=O)Cc1cc(F)cc(F)c1)C(=O)N[C@H](C(=O)OC(C)(C)C)c1ccccc1 [DAPT, N-[N-(3,5-difluorophenacetyl)-1-alanyl]-S-phenylglycine t-butyl ester]
expression of NICD1 protein (NICD1 protein [1]): increase in NICD1 was not found

CCOC(=O)CN1C(=O)c2ccc3c4c(ccc(c24)C1=O)C(=O)N(CC(=O)OCC)C3=O [PiB, diethyl-1,3,6,8-tetrahydro-1,3,6,8-tetraoxobenzo phenanthroline-2,7-diacetate]
apoptosis (trypan blue) (SH-SY5Y cells): decreased to a greater or less extent

S=C(SC(=S)N1CCCCC1)N1CCCCC1 [DTM, dipentamethylene thiuram monosulfide]
apoptosis (trypan blue) (SH-SY5Y cells): decreased to a greater or less extent

O=C1C=CC(=O)c2c(O)cccc21 [juglone, 5-hydroxy-1,4-naphthoquinone]
NICD1 ubiquitination (NICD1 ubiquitination): increased again | Pin1 expression (Pin1 protein [2]): reduced | expression of cleaved caspase-3 (CLCas-3) protein [3]: decreased | expression of NICD1 protein (NICD1 protein [4]): decreased | apoptosis (trypan blue) (SH-SY5Y cells): decreased to a greater or less extent | generation of ischemia ([5]; FIG. 7A): decreased | neurological deficits ([5]; FIG. 7B): decreased | expression of NICD1 protein (NICD1 protein [6]): decreased | expression of Pin1 protein (Pin1 protein [7]): decreased | expression of FBW7 protein (FBW7 protein [8]): increased | generation of ischemia ([9]; FIG. 8A): decreased | neurological deficits ([9]; FIG. 8B): decreased | expression of NICD1 protein (NICD1 protein [10]): decreased | expression of Pin1 protein (Pin1 protein [11]): decreased | expression of FBW7 protein (FBW7 protein [12]): increased | apoptosis (neuronal cell death, trypan blue) (primary neuronal cells): reduced
